# Test results taken from PMC5218480 (PLoS ONE, 2017).
# System: MV-4-11 cells
# Assay: Gene expression microarray analysis (Affymetrix PrimeView) and GSEA
# Type: cell-based, human
# Design: RFU PODN (11730768_x_at) / Fold change /veh PODN (11730768_x_at) / RFU LINC00158 (11744669_a_at) / Fold change /veh LINC00158 (11744669_a_at) / RFU DUSP10 (11751237_a_at) / Fold change /veh DUSP10 (11751237_a_at) / RFU ID3 (11757404_x_at) / Fold change /veh ID3 (11757404_x_at) / RFU PLEKHG5 (11737974_s_at) / Fold change /veh PLEKHG5 (11737974_s_at) / RFU LRRC4B (11730491_at) / Fold change /veh LRRC4B (11730491_at) / RFU GIMAP4 (11747438_a_at) / Fold change /veh GIMAP4 (11747438_a_at) / RFU KRT8 (11758183_x_at) / Fold change /veh KRT8 (11758183_x_at) / RFU CNN1 (11734310_a_at) / Fold change /veh CNN1 (11734310_a_at) / RFU VPS37D (11726825_at) / Fold change /veh VPS37D (11726825_at) / RFU C10orf10 (11716522_x_at) / Fold change /veh C10orf10 (11716522_x_at) / RFU KIR2DL2 /// KIR2DL4 /// KIR2DL5A /// KIR2DL5B /// KIR2DS1 /// KIR2DS2 /// KIR2DS3 /// KIR2DS4 /// KIR3DL3 /// KIR3DL3 /// KIR3DS1 (11738374_at) / Fold change /veh KIR2DL2 /// KIR2DL4 /// KIR2DL5A /// KIR2DL5B /// KIR2DS1 /// KIR2DS2 /// KIR2DS3 /// KIR2DS4 /// KIR3DL3 /// KIR3DL3 /// KIR3DS1 (11738374_at) / RFU C1QL1 (11718748_at) / Fold change /veh C1QL1 (11718748_at) / RFU TMPRSS4 (11747572_a_at) / Fold change /veh TMPRSS4 (11747572_a_at) / RFU HAMP (11756126_x_at) / Fold change /veh HAMP (11756126_x_at) / RFU RNFT2 (11725882_a_at) / Fold change /veh RNFT2 (11725882_a_at) / RFU NR4A2 (11747474_a_at) / Fold change /veh NR4A2 (11747474_a_at) / RFU ABCC12 (11746883_a_at) / Fold change /veh ABCC12 (11746883_a_at) / RFU TMEM136 (11760407_x_at) / Fold change /veh TMEM136 (11760407_x_at) / RFU CLDN22 /// WWC2 (11732394_at) / Fold change /veh CLDN22 /// WWC2 (11732394_at) / RFU HLA-DPB1 (11760878_x_at) / Fold change /veh HLA-DPB1 (11760878_x_at) / RFU SPINT1 (11716480_a_at) / Fold change /veh SPINT1 (11716480_a_at) / RFU GAP43 (11754022_s_at) / Fold change /veh GAP43 (11754022_s_at) / RFU A4GNT (11735810_at) / Fold change /veh A4GNT (11735810_at) / RFU PRB3 (11715151_x_at) / Fold change /veh PRB3 (11715151_x_at) / RFU TUBB4B (11761932_at) / Fold change /veh TUBB4B (11761932_at) / RFU CAPN14 (11732068_a_at) / Fold change /veh CAPN14 (11732068_a_at) / RFU TMCC2 (11721928_a_at) / Fold change /veh TMCC2 (11721928_a_at) / RFU IRGQ (11745062_a_at) / Fold change /veh IRGQ (11745062_a_at) / RFU FAM174B (11720279_a_at) / Fold change /veh FAM174B (11720279_a_at) / RFU TMPRSS4 (11748680_a_at) / Fold change /veh TMPRSS4 (11748680_a_at) / RFU FAM212B (11763350_a_at) / Fold change /veh FAM212B (11763350_a_at) / RFU PLEKHG5 (11743358_a_at) / Fold change /veh PLEKHG5 (11743358_a_at) / RFU ZSCAN30 (11745921_a_at) / Fold change /veh ZSCAN30 (11745921_a_at) / RFU CMKLR1 (11741424_a_at) / Fold change /veh CMKLR1 (11741424_a_at) / RFU LOC101060620 /// MAPK8IP1 (11723275_at) / Fold change /veh LOC101060620 /// MAPK8IP1 (11723275_at) / RFU SPTSSB (11747773_x_at) / Fold change /veh SPTSSB (11747773_x_at) / RFU PRSS12 (11739890_at) / Fold change /veh PRSS12 (11739890_at) / RFU BIN1 (11741810_x_at) / Fold change /veh BIN1 (11741810_x_at) / RFU WNT11 (11732464_a_at) / Fold change /veh WNT11 (11732464_a_at) / RFU C10orf10 (11716521_a_at) / Fold change /veh C10orf10 (11716521_a_at) / RFU C5orf56 (11738089_at) / Fold change /veh C5orf56 (11738089_at) / RFU CYB561 (11721691_x_at) / Fold change /veh CYB561 (11721691_x_at) / RFU ANKRD19P (11752326_a_at) / Fold change /veh ANKRD19P (11752326_a_at) / RFU OR2T12 /// OR2T33 /// OR2T8 (11738714_s_at) / Fold change /veh OR2T12 /// OR2T33 /// OR2T8 (11738714_s_at) / RFU VCAN (11748164_a_at) / Fold change /veh VCAN (11748164_a_at) / RFU JSRP1 (11732532_at) / Fold change /veh JSRP1 (11732532_at) / RFU KRTAP10-11 (11738290_x_at) / Fold change /veh KRTAP10-11 (11738290_x_at) / RFU MYO3A (11730013_a_at) / Fold change /veh MYO3A (11730013_a_at) / RFU EBF3 (11725865_a_at) / Fold change /veh EBF3 (11725865_a_at) / RFU CAMK2N1 (11719241_x_at) / Fold change /veh CAMK2N1 (11719241_x_at) / RFU C5orf56 (11738088_a_at) / Fold change /veh C5orf56 (11738088_a_at) / RFU OLFML3 (11715873_a_at) / Fold change /veh OLFML3 (11715873_a_at) / RFU LOC100653217 /// NTM (11731650_a_at) / Fold change /veh LOC100653217 /// NTM (11731650_a_at) / RFU MAPK11 (11762145_a_at) / Fold change /veh MAPK11 (11762145_a_at) / RFU FIZ1 (11724087_x_at) / Fold change /veh FIZ1 (11724087_x_at) / RFU OASL (11726364_x_at) / Fold change /veh OASL (11726364_x_at) / RFU SOX15 (11748057_x_at) / Fold change /veh SOX15 (11748057_x_at) / RFU CD79A (11719716_a_at) / Fold change /veh CD79A (11719716_a_at) / RFU HIST1H1D (11736915_at) / Fold change /veh HIST1H1D (11736915_at) / RFU CASKIN2 (11723855_a_at) / Fold change /veh CASKIN2 (11723855_a_at) / RFU LOC730098 (11760151_x_at) / Fold change /veh LOC730098 (11760151_x_at) / RFU OR4N2 (11742367_at) / Fold change /veh OR4N2 (11742367_at) / RFU PRRT2 (11749266_a_at) / Fold change /veh PRRT2 (11749266_a_at) / RFU SNX32 (11753110_a_at) / Fold change /veh SNX32 (11753110_a_at) / RFU CDHR5 (11726645_a_at) / Fold change /veh CDHR5 (11726645_a_at) / RFU RCAN1 (11760418_a_at) / Fold change /veh RCAN1 (11760418_a_at) / RFU FAM167A (11723789_a_at) / Fold change /veh FAM167A (11723789_a_at) / RFU FAM26E (11764081_at) / Fold change /veh FAM26E (11764081_at) / RFU ISYNA1 (11749810_s_at) / Fold change /veh ISYNA1 (11749810_s_at) / RFU ACY1 (11761880_at) / Fold change /veh ACY1 (11761880_at) / RFU 11764098_at / Fold change /veh 11764098_at / RFU SAMD14 (11745864_x_at) / Fold change /veh SAMD14 (11745864_x_at) / RFU NPB (11741838_a_at) / Fold change /veh NPB (11741838_a_at) / RFU TMPRSS6 (11731388_a_at) / Fold change /veh TMPRSS6 (11731388_a_at) / RFU KRTAP10-2 (11738614_at) / Fold change /veh KRTAP10-2 (11738614_at) / RFU ARHGAP8 /// PRR5-ARHGAP8 (11727945_x_at) / Fold change /veh ARHGAP8 /// PRR5-ARHGAP8 (11727945_x_at) / RFU KRTAP5-7 /// NADSYN1 (11734609_at) / Fold change /veh KRTAP5-7 /// NADSYN1 (11734609_at) / RFU RASL12 (11751679_a_at) / Fold change /veh RASL12 (11751679_a_at) / RFU CDKN2B (11736163_a_at) / Fold change /veh CDKN2B (11736163_a_at) / RFU PRF1 (11729649_at) / Fold change /veh PRF1 (11729649_at) / RFU, ZNF638 /// ZNF638-IT1 / Fold change vs veh, ZNF638 /// ZNF638-IT1 / RFU, PANK3 / Fold change vs veh, PANK3 / RFU, SH3YL1 / Fold change vs veh, SH3YL1 / RFU, ZEB2 / Fold change vs veh, ZEB2 / RFU, NRIP1 / Fold change vs veh, NRIP1 / RFU, PTTG1IP / Fold change vs veh, PTTG1IP / RFU, CAPN2 / Fold change vs veh, CAPN2 / RFU, MED14 / Fold change vs veh, MED14 / RFU, SNORA58 / Fold change vs veh, SNORA58 / RFU, C1orf63 / Fold change vs veh, C1orf63 / RFU, LRRFIP1 / Fold change vs veh, LRRFIP1 / RFU, NDUFAF7 / Fold change vs veh, NDUFAF7 / RFU, SLC12A2 / Fold change vs veh, SLC12A2 / RFU, IBTK / Fold change vs veh, IBTK / RFU, ESF1 / Fold change vs veh, ESF1 / Fold change vs veh, TMEM50B / RFU, TAOK1 / Fold change vs veh, TAOK1 / RFU, ACBD3 / Fold change vs veh, ACBD3 / RFU, TMA16 / Fold change vs veh, TMA16 / RFU, RWDD3 / Fold change vs veh, RWDD3 / RFU, BCAT1 / Fold change vs veh, BCAT1 / RFU, EDEM3 / Fold change vs veh, EDEM3 / RFU, TMEM33 / Fold change vs veh, TMEM33 / RFU, WDR75 / Fold change vs veh, WDR75 / RFU, AHCTF1 / Fold change vs veh, AHCTF1 / RFU, TFRC / Fold change vs veh, TFRC / RFU, ZDHHC17 / Fold change vs veh, ZDHHC17 / RFU, NOM1 / Fold change vs veh, NOM1 / RFU, ARL8B / Fold change vs veh, ARL8B / RFU, ZBTB11 / Fold change vs veh, ZBTB11 / RFU, TAMM41 / Fold change vs veh, TAMM41 / RFU, KIAA1704 /// LOC100996395 / Fold change vs veh, KIAA1704 /// LOC100996395 / RFU, ING1 / Fold change vs veh, ING1 / RFU, TRMT61B / Fold change vs veh, TRMT61B / RFU, FUBP3 / Fold change vs veh, FUBP3 / RFU, TP53 / Fold change vs veh, TP53 / RFU, TNKS2 / Fold change vs veh, TNKS2 / RFU, ZFP14 / Fold change vs veh, ZFP14 / RFU, ACTR2 / Fold change vs veh, ACTR2 / RFU, PPP3R1 / Fold change vs veh, PPP3R1 / RFU, PIK3R1 / Fold change vs veh, PIK3R1 / RFU, HNRNPA1 / Fold change vs veh, HNRNPA1 / RFU, RNF170 / Fold change vs veh, RNF170 / RFU, ZNF28 / Fold change vs veh, ZNF28 / RFU, RNGTT / Fold change vs veh, RNGTT / RFU, OGT / Fold change vs veh, OGT / RFU, BRD1 / Fold change vs veh, BRD1 / RFU, MARS / Fold change vs veh, MARS / RFU, ZNF655 / Fold change vs veh, ZNF655 / RFU, FAHD1 / Fold change vs veh, FAHD1 / RFU, BDP1 / Fold change vs veh, BDP1 / RFU, LRRCC1 / Fold change vs veh, LRRCC1 / RFU, ARID1A / Fold change vs veh, ARID1A / RFU, ZNF146 / Fold change vs veh, ZNF146 / RFU, ZNF330 / Fold change vs veh, ZNF330 / RFU, GPN3 / Fold change vs veh, GPN3 / RFU, C9orf123 / Fold change vs veh, C9orf123 / RFU, N4BP2L2 / Fold change vs veh, N4BP2L2 / RFU, ARFIP1 / Fold change vs veh, ARFIP1 / RFU, FAM179B / Fold change vs veh, FAM179B / RFU, BCL10 / Fold change vs veh, BCL10 / RFU, UHRF1BP1L / Fold change vs veh, UHRF1BP1L / RFU, BET1 / Fold change vs veh, BET1 / RFU, CNOT2 / Fold change vs veh, CNOT2 / RFU, ZNF268 / Fold change vs veh, ZNF268 / Fold change vs veh, ZNF507 / RFU, DGCR2 / Fold change vs veh, DGCR2 / RFU, WDSUB1 / Fold change vs veh, WDSUB1 / Fold change vs veh, HSP90B1 /// MIR3652 / RFU, ADSS / Fold change vs veh, ADSS / RFU, GK / Fold change vs veh, GK / RFU, ZNF148 / Fold change vs veh, ZNF148 / RFU, TAF9 / Fold change vs veh, TAF9 / RFU, SLC1A5 / Fold change vs veh, SLC1A5 / RFU, SLMO2 / Fold change vs veh, SLMO2 / RFU, ABCC4 / Fold change vs veh, ABCC4 / RFU, LOC101060439 /// RAP1B / Fold change vs veh, LOC101060439 /// RAP1B / RFU, RFX7 / Fold change vs veh, RFX7 / RFU, GTPBP10 / Fold change vs veh, GTPBP10 / RFU, CNEP1R1 / Fold change vs veh, CNEP1R1 / RFU, BIVM-ERCC5 /// ERCC5 / Fold change vs veh, BIVM-ERCC5 /// ERCC5 / RFU, ILF3 / Fold change vs veh, ILF3 / RFU 11762660_at / Fold change /veh 11762660_at / RFU VCAN (11757783_s_at) / Fold change /veh VCAN (11757783_s_at) / RFU DDX43 (11728927_at) / Fold change /veh DDX43 (11728927_at) / RFU KRT8 (11758188_x_at) / Fold change /veh KRT8 (11758188_x_at) / RFU NKD1 (11759106_at) / Fold change /veh NKD1 (11759106_at) / RFU SRD5A1 (11742802_a_at) / Fold change /veh SRD5A1 (11742802_a_at) / RFU TPSAB1 /// TPSB2 (11721975_s_at) / Fold change /veh TPSAB1 /// TPSB2 (11721975_s_at) / RFU GSTM3 (11746129_a_at) / Fold change /veh GSTM3 (11746129_a_at) / RFU IL23R (11737362_x_at) / Fold change /veh IL23R (11737362_x_at) / RFU TMEM51 (11727254_a_at) / Fold change /veh TMEM51 (11727254_a_at) / RFU PIWIL2 (11732686_x_at) / Fold change /veh PIWIL2 (11732686_x_at) / RFU ORM1 (11744905_x_at) / Fold change /veh ORM1 (11744905_x_at) / RFU CCDC152 (11743942_at) / Fold change /veh CCDC152 (11743942_at) / RFU ECM1 (11717891_a_at) / Fold change /veh ECM1 (11717891_a_at) / RFU IL23R (11748794_a_at) / Fold change /veh IL23R (11748794_a_at) / RFU TNFAIP8L3 (11732012_x_at) / Fold change /veh TNFAIP8L3 (11732012_x_at) / RFU MBOAT4 (11741988_at) / Fold change /veh MBOAT4 (11741988_at) / RFU 11764193_at / Fold change /veh 11764193_at / RFU TMEM53 (11763286_at) / Fold change /veh TMEM53 (11763286_at) / RFU MAGEB2 (11727129_at) / Fold change /veh MAGEB2 (11727129_at) / RFU TMEM200A (11744735_a_at) / Fold change /veh TMEM200A (11744735_a_at) / RFU CCDC152 (11751479_a_at) / Fold change /veh CCDC152 (11751479_a_at) / RFU FAM211A (11726209_a_at) / Fold change /veh FAM211A (11726209_a_at) / RFU RGS16 (11746705_a_at) / Fold change /veh RGS16 (11746705_a_at) / RFU VCAN (11755009_s_at) / Fold change /veh VCAN (11755009_s_at) / RFU RHOB (11743442_s_at) / Fold change /veh RHOB (11743442_s_at) / RFU RGS16 (11720943_a_at) / Fold change /veh RGS16 (11720943_a_at) / RFU RGS16 (11720944_at) / Fold change /veh RGS16 (11720944_at) / RFU, VPS4B / Fold change vs veh, VPS4B / RFU, CREB1 / Fold change vs veh, CREB1 / RFU, DNAJC13 / Fold change vs veh, DNAJC13 / RFU, GNAQ / Fold change vs veh, GNAQ / RFU, CDK5R1 / Fold change vs veh, CDK5R1 / RFU, ZRANB3 / Fold change vs veh, ZRANB3 / RFU, CUL4A / Fold change vs veh, CUL4A / RFU, CCNY / Fold change vs veh, CCNY / RFU, UFL1 / Fold change vs veh, UFL1 / RFU, COG3 / Fold change vs veh, COG3 / RFU, DIAPH2 / Fold change vs veh, DIAPH2 / RFU, SKA2 / Fold change vs veh, SKA2 / RFU, AFF3 / Fold change vs veh, AFF3 / RFU, LMF1 / Fold change vs veh, LMF1 / RFU, IPO11 / Fold change vs veh, IPO11 / RFU, DFFB / Fold change vs veh, DFFB / RFU, FOXP1 / Fold change vs veh, FOXP1 / RFU, CARD8 / Fold change vs veh, CARD8 / RFU, STRN3 / Fold change vs veh, STRN3 / RFU, ADK / Fold change vs veh, ADK / RFU, RASSF2 / Fold change vs veh, RASSF2 / RFU, WIPF1 / Fold change vs veh, WIPF1 / RFU, LARP1B / Fold change vs veh, LARP1B / RFU, RASA1 / Fold change vs veh, RASA1 / RFU, RB1 / Fold change vs veh, RB1 / RFU, PPFIA1 / Fold change vs veh, PPFIA1 / RFU, MAT2A / Fold change vs veh, MAT2A / RFU, CCT5 / Fold change vs veh, CCT5 / RFU, WDR92 / Fold change vs veh, WDR92 / RFU, CUX1 / Fold change vs veh, CUX1 / RFU, TTC7A / Fold change vs veh, TTC7A / RFU, TMEM135 / Fold change vs veh, TMEM135 / RFU, DEPTOR / Fold change vs veh, DEPTOR / RFU, CPM / Fold change vs veh, CPM / RFU, DNAJB6 / Fold change vs veh, DNAJB6 / RFU, CACNA2D3 / Fold change vs veh, CACNA2D3 / RFU, DTX4 / Fold change vs veh, DTX4 / RFU, TFCP2 / Fold change vs veh, TFCP2 / RFU, GMCL1 /// GMCL1P1 / Fold change vs veh, GMCL1 /// GMCL1P1 / RFU, AEBP2 / Fold change vs veh, AEBP2 / RFU, SNHG1 /// SNORD22 /// SNORD25 /// SNORD26 /// SNORD27 /// SNORD28 /// SNORD29 /// SNORD31 / Fold change vs veh, SNHG1 /// SNORD22 /// SNORD25 /// SNORD26 /// SNORD27 /// SNORD28 /// SNORD29 /// SNORD31 / Fold change (Aza/veh), C12orf56 (ProbeSet 11735607_a_at) / Fold change (ACY-1035/veh), C12orf56 (ProbeSet 11735607_a_at) / Fold change (Aza/veh), FGFR1OP (ProbeSet 11751329_s_at) / Fold change (ACY-1035/veh), FGFR1OP (ProbeSet 11751329_s_at) / Fold change (Aza/veh), VPS36 (ProbeSet 11739960_a_at) / Fold change (ACY-1035/veh), VPS36 (ProbeSet 11739960_a_at) / RFU SYPL1 (11715823_x_at) / Fold change /veh SYPL1 (11715823_x_at) / RFU IGFBP7 (11715501_s_at) / Fold change /veh IGFBP7 (11715501_s_at) / RFU REEP3 (11722064_at) / Fold change /veh REEP3 (11722064_at) / RFU IGLL1 (11728026_x_at) / Fold change /veh IGLL1 (11728026_x_at): dose or concentration left out as unconfirmed
# Conditions: gene FGFR1OP; Azacitidine vs DMSO; LIST F
compound,measurement,value
Nc1ncn([C@@H]2O[C@H](CO)[C@@H](O)[C@H]2O)c(=O)n1 [azacitidine],"Fold change (Aza/veh), FGFR1OP (ProbeSet 11751329_s_at)",0.95
